# Patent US5573908A, “Adrenergic receptor as a proto-oncogene” (Duke University, priority 1993, dated 1996)
# “And” between values parts separate entries of the source, which are not always exact repeats. Equal values may be shown once.
# Columns and labels:
# Assay type in all cases: cell-based
# [1] = test system: RAT-1 fibroblasts transfected with expression vector alone; test: Focus formation in RAT-1 fibroblasts transfected with expression vector alone
# Description: (§1) Transfection was carried out as follows: RAT-1 fibroblasts were seeded at a density of 2×10^5 cells in Dulbecco's modified Eagle's medium (DMEM) (Gibco) containing 5% fetal bovine serum (FBS) in 100 mm dishes. Cells were grown overnight, then transfected with 10 μg of DNA (expression vector alone [pZIP-NeoSV(X)1] or containing the α1B-ADR, α1B -ADR mutant [discussed in Example 3 below] or activated Ha-ras c-DNAs) by calcium phosphate precipitation (B. Cullen, Methods Enzymol. 152, 684 (1987)). The α1B -ADR used herein was the hamster α1B -ADR described in S. Cotecchia et al., Proc. Natl. Acad. Sci. USA 85, 7159-7163 (1988). After 16 hours, the DNA precipitate was removed, the cells washed and grown for 24 hours in complete medium. Cells were split 1:5, allowed to attach overnight and then cultured in DMEM with 5% FBS alone, supplemented with 10 μM norepinephrine (NE) or G418 (300 μg/ml). Dishes were supplemented with NE daily, and fed every 3 days with fresh medium.
# (§2) ^1 Cells were cultured for 3 weeks in the presence or absence of 10
# (§3) μM norepinephrine (NE), supplemented daily, in medium containing 5%
# (§4) FBS. The number of transformed foci were scored after 4 weeks of culture.
# (§5) Results represent the average duplicate determinations from two
# (§6) independent experiments which agreed within 25%; nd = not determined. […]
# (§7) growth, the number of foci was scored. […]
# [2] = test system: RAT-1 fibroblasts transfected with ras c-DNA; test: Focus formation in RAT-1 fibroblasts transfected with activated Ha-ras c-DNA
# Description: as §1, §2, §3, §4, §5, §6, §7
# [3] = test system: RAT-1 fibroblast cell lines transfected with vector alone; test: Growth curves of RAT-1 fibroblast cell lines transfected with vector alone; conditions: 10 μM NE daily, 5% FBS
compound,measurement,setting,value
"NC[C@H](O)c1ccc(O)c(O)c1 [NE, norepinephrine]",Foci No. +NE,"[1]; RAT-1 cell lines transfected with vector alone, 10 μM NE, 3 weeks of growth, two clones (Table 2)",0
same,Foci No. +NE,"[1]; RAT-1 transfected with vector alone, 10 μM NE supplemented daily, 5% FBS (Table 1)",0
same,Foci No. +NE,"[2]; RAT-1 transfected with ras, 10 μM NE supplemented daily, 5% FBS (Table 1)",197
same,Foci No. +NE,"[2]; focus derived RAT-1 cell lines, ras, 10 μM NE, 3 weeks of growth, two clones (Table 2)",> 500 and 460
same,rate of cell proliferation in the presence or absence of catecholamines,[3],no significant difference
